In US20140073801A1, “PYRROLIDINE DERIVATIVES AS SELECTIVE GLYCOSIDASE INHIBITORS AND USES THEREOF” (Summit Corporation Plc, priority 2011, published 2014):

What was measured:
Format in all cases: biochemical
[1] = molecular target: T1, human β-hexosaminidase [human placenta] (HexA/B); test: Determination of IC50 values for inhibition of human β-hexosaminidase; conditions: human β-hexosaminidase, human placenta; room temperature, thirty minutes
T1 construct: other: human β-hexosaminidase, human placenta; room temperature, thirty minutes
Procedure: (§1) Inhibitors identified from the screen described in Example 1 were evaluated for IC50 against human β-hexosaminidase [human placenta, Sigma-Aldrich] using a range of inhibitor concentrations from 300 μM to 0.003 μM or 100 μM to 0.001 μM and the following reaction conditions:
(§2) Reactions were carried out at room temperature for thirty minutes and then quenched through the addition of 150 μl 0.5M Na2CO3. Fluorescence readings were taken at excitation wavelength 360 nm and emission wavelength 450 nm. IC50 values were calculated using XLFit 4. The selectivity ratio for inhibition of human O-GlcNAcase over human β-hexosaminidase is defined here as:
(§3) IC50(human β-hexosaminidase)/IC50(Human OGA)

[2] = test system: human β-hexosaminidase [human placenta] (HexA/B); test: as above; conditions: ratio
Procedure: as §1, §2, §3

human OGA = molecular target: T2, human OGA (Homo sapiens, UniProt O60502); test: Determination of IC50 values for inhibition of human OGA
T2 construct: made in house
T2 sequence (O60502 1-916): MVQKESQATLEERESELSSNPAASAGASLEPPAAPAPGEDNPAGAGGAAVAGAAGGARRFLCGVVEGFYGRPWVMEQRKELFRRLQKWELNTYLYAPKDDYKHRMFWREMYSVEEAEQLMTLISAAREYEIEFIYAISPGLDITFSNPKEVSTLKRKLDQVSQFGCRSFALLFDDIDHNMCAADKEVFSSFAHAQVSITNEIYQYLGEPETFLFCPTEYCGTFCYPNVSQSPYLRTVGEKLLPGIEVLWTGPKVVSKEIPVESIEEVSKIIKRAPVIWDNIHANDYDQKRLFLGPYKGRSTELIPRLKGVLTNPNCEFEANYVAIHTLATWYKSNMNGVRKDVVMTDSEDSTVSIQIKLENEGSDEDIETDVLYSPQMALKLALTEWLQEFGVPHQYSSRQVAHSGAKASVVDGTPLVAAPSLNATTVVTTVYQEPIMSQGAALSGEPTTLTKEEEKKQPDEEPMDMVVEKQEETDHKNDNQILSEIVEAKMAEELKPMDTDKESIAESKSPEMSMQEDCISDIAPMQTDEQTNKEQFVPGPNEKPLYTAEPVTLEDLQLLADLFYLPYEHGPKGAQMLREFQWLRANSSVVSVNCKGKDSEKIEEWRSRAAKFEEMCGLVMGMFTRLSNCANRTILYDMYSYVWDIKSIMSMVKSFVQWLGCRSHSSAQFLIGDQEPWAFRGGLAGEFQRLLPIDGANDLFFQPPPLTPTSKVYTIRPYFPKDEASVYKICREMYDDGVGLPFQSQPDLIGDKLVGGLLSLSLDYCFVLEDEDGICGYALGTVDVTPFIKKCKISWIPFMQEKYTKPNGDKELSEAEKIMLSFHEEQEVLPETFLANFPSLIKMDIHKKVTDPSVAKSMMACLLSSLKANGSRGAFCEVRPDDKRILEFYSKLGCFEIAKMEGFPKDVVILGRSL
Procedure: Inhibitors identified from the screen described in Example 1 were evaluated for IC50 using a procedure adapted from Biochem. J. 2009, 420, 221-227. IC50 determination was carried out using a range of inhibitor concentrations from 300 μM to 0.003 μM or 100 μM to 0.001 μM. IC50 values were calculated using XLFit 4.

Compound	IC50 [1] [µM]	Selectivity: IC50(human β-hexosaminidase)/IC50(Human OGA) [2]	IC50 (human OGA) [µM]
CNC(=O)C[C@@H]1[C@H](O)[C@H](O)[C@@H](CO)N1CCCCc1ccccc1 [Compound A020, 2-((2R,3S,4R,5R)-3,4-dihydroxy-5-(hydroxymethyl)-1-(4-phenylbutyl)pyrrolidin-2-yl)-N-methylacetamide]	> 300	>13215	0.023
CC(C)NC(=O)C[C@H]1N[C@H](CO)[C@@H](O)[C@H]1O [Compound A013, 2-((2R,3S,4R,5R)-3,4-dihydroxy-5-(hydroxymethyl)pyrrolidin-2-yl)-N-isopropylacetamide]	> 300	>2	130
CNC(=O)C[C@@H]1[C@H](O)[C@H](O)[C@@H](CO)N1CCOc1ccccc1 [Compound A037, 2-((2R,3S,4R,5R)-3,4-dihydroxy-5-(hydroxymethyl)-1-(2-phenoxyethyl)pyrrolidin-2-yl)-N-methylacetamide]	> 300	>1315	0.228
CCNC(=O)C[C@@H]1[C@@H](O)[C@H](O)[C@@H](CO)N1CCOc1ccc(Cl)cc1Cl [Compound A062, 2-((2R,3R,4R,5R)-1-(2-(2,4-dichlorophenoxy)ethyl)-3,4-dihydroxy-5-(hydroxymethyl)pyrrolidin-2-yl)-N-ethylacetamide]	> 300	>585	0.512
CCCNC(=O)C[C@@H]1[C@H](O)[C@H](O)[C@@H](CO)N1CCCCCCCCCO [Compound A005, 2-((2R,3S,4R,5R)-3,4-dihydroxy-5-(hydroxymethyl)-1-(9-hydroxynonyl)pyrrolidin-2-yl)-N-propylacetamide]	> 300	>2142	0.144
CCCNC(=O)C[C@H]1N[C@H](CO)[C@@H](O)[C@H]1O [Compound A004, 2-((2R,3S,4R,5R)-3,4-dihydroxy-5-(hydroxymethyl)pyrrolidin-2-yl)-N-propylacetamide]	> 300	>555	0.537
CCCCN1[C@H](CC(=O)NC)[C@H](O)[C@H](O)[C@H]1CO [Compound A017, 2-((2R,3S,4R,5R)-1-butyl-3,4-dihydroxy-5-(hydroxymethyl)pyrrolidin-2-yl)-N-methylacetamide]	196	3500	0.056
CC(=O)NC[C@H]1N[C@H](CO)[C@@H](O)[C@H]1O [Compound A033, N-(((2R,3S,4R,5R)-3,4-dihydroxy-5-(hydroxymethyl)pyrrolidin-2-yl)methyl)acetamide]	> 300	>178.57	1.68
CNC(=O)C[C@H]1N[C@H](CO)[C@@H](O)[C@@H]1O [Compound A044, 2-((2R,3R,4R,5R)-3,4-dihydroxy-5-(hydroxymethyl)pyrrolidin-2-yl)-N-methylacetamide]	0.13	4.66	0.0279
CC(C)CNC(=O)C[C@H]1N[C@H](CO)[C@@H](O)[C@H]1O [Compound A025, 2-((2R,3S,4R,5R)-3,4-dihydroxy-5-(hydroxymethyl)pyrrolidin-2-yl)-N-isobutylacetamide]	> 300	>2.3	129
CNC(=O)[C@H]1NC[C@@H](O)[C@@H]1O [Compound A043, (2S,3R,4R)-3,4-dihydroxy-N-methylpyrrolidine-2-carboxamide]	14	1.37	10.2

Continued, values first:

IC50 [1] [µM]	Selectivity: IC50(human β-hexosaminidase)/IC50(Human OGA) [2]	IC50 (human OGA) [µM]	Compound
> 300	>49.4	6.07	CCCCCCN1[C@H](CC(=O)NC)[C@H](O)[C@@H](O)[C@@H]1CO [Compound A032, 2-((2R,3S,4S,5S)-1-hexyl-3,4-dihydroxy-5-(hydroxymethyl)pyrrolidin-2-yl)-N-methylacetamide]
4.26	0.11	39.2	CNC(=O)C[C@H]1[C@@H](O)[C@H](O)[C@H](CO)N1CCCc1ccccc1 [Compound A057, 2-((2S,3R,4R,5S)-3,4-dihydroxy-5-(hydroxymethyl)-1-(3-phenylpropyl)pyrrolidin-2-yl)-N-methylacetamide]
197	5472	0.036	CNC(=O)C[C@@H]1[C@H](O)[C@H](O)[C@@H](CO)N1CCCCCCCCCO [Compound A009, 2-((2R,3S,4R,5R)-3,4-dihydroxy-5-(hydroxymethyl)-1-(9-hydroxynonyl)pyrrolidin-2-yl)-N-methylacetamide]
> 300	>234	1.25	CCNC(=O)C[C@H]1N[C@H](CO)[C@@H](O)[C@H]1O [Compound A006, 2-((2R,3S,4R,5R)-3,4-dihydroxy-5-(hydroxymethyl)pyrrolidin-2-yl)-N-ethylacetamide]
> 300	>4329	0.0693	CCNC(=O)C[C@@H]1[C@@H](O)[C@H](O)[C@@H](CO)N1CCCc1ccccc1 [Compound A061, 2-((2R,3R,4R,5R)-3,4-dihydroxy-5-(hydroxymethyl)-1-(3-phenylpropyl)pyrrolidin-2-yl)-N-ethylacetamide]
> 300	>3.97	75.5	CCCCCCN1[C@H](CC(=O)NCC2CCCCC2)[C@H](O)[C@H](O)[C@H]1CO [Compound A031, N-(cyclohexylmethyl)-2-((2R,3S,4R,5R)-1-hexyl-3,4-dihydroxy-5-(hydroxymethyl)pyrrolidin-2-yl)acetamide]
0.0107	0.02	0.58	CCCCCCN1[C@H](CC(=O)NC)[C@@H](O)[C@H](O)[C@@H]1CO [Compound A056, 2-((2R,3R,4R,5S)-1-hexyl-3,4-dihydroxy-5-(hydroxymethyl)pyrrolidin-2-yl)-N-methylacetamide]
> 300	>10.43	28.8	CCNC(=O)C[C@@H]1N[C@H](CO)[C@@H](O)[C@@H]1O [Compound A051, 2-((2S,3R,4R,5R)-3,4-dihydroxy-5-(hydroxymethyl)pyrrolidin-2-yl)-N-ethylacetamide]
44	0.31	143	CCCCCCN1[C@@H](CO)[C@H](O)[C@H](O)[C@@H]1CC(=O)NC [Compound A024, 2-((2S,3R,4S,5S)-1-hexyl-3,4-dihydroxy-5-(hydroxymethyl)pyrrolidin-2-yl)-N-methylacetamide]
114	8142	0.014	CNC(=O)C[C@@H]1[C@H](O)[C@H](O)[C@@H](CO)N1CCC1CCCCC1 [Compound A041, 2-((2R,3S,4R,5R)-1-(2-cyclohexylethyl)-3,4-dihydroxy-5-(hydroxymethyl)pyrrolidin-2-yl)-N-methylacetamide]
> 300	>12.6	23.8	O=C(C[C@H]1N[C@H](CO)[C@@H](O)[C@H]1O)NC1CC1 [Compound A048, N-cyclopropyl-2-((2R,3S,4R,5R)-3,4-dihydroxy-5-(hydroxymethyl)pyrrolidin-2-yl)acetamide]
> 300	>230	1.3	CC(=O)NC[C@@H]1[C@H](O)[C@H](O)[C@@H](CO)N1CCCc1ccccc1 [Compound A038, N-(((2R,3S,4R,5R)-3,4-dihydroxy-5-(hydroxymethyl)-1-(3-phenylpropyl)pyrrolidin-2-yl)methyl)acetamide]
2.5	0.89	2.8	CNC(=O)[C@H]1N[C@@H](CO)[C@@H](O)[C@@H]1O [Compound A042, (2S,3R,4R,5S)-3,4-dihydroxy-5-(hydroxymethyl)-N-methylpyrrolidine-2-carboxamide]
